According to patent publication US7994200B2, “Cycloalkane-substituted pyrazoline derivatives, their preparation and use as medicaments” (Laboratorios del Dr. Esteve, S.A., priority 2005, dated 2011):
Where two headings read alike, the source gives them in different places.

Tests used:
CB1-Receptor = target: T1, CB1-Receptor (Homo sapiens, UniProt P21554); experiment: In-vitro determination of affinity to CB1/CB2-Receptors, radioligand [3H]-CP55940; format: binding
T1 construct: purchased Receptor Biology, Inc
T1 sequence (P21554 whole entry): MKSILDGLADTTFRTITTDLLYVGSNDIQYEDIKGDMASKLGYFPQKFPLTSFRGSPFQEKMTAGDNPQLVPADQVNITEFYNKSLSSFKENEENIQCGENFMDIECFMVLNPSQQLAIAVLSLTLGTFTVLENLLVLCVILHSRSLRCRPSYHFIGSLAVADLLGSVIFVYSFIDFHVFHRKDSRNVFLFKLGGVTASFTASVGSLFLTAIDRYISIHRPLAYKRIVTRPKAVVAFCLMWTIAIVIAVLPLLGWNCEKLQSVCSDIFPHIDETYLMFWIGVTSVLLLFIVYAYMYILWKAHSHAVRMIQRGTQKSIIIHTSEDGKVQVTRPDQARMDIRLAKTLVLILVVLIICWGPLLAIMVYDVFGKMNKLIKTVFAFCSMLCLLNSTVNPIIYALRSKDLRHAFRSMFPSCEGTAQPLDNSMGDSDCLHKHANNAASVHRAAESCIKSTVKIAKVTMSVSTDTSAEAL
Protocol: Pharmacological Data: Pharmacological Methods I. In-vitro determination of affinity to CB1/CB2-Receptors
The in-vitro determination of the affinity of the inventive quaternary ammonium salts of substituted pyrazoline compounds to CB1/CB2-Receptors is carried out as described in the publication of Ruth A. Ross, Heather C. Brockie et al., “Agonist-inverse agonist characterization at CB1 and CB2 cannabinoid receptors of L-759633, L759656 and AM630”, British Journal of Pharmacology, 126, 665-672, (1999), whereby the transfected human CB1 and CB2 receptors of Receptor Biology, Inc. are used. The radioligand used for both receptors is [^3H]-CP55940. The respective parts of the description are hereby incorporated by reference and forms part of the present disclosure.
The affinity of the inventive substituted pyrazoline compounds to CB1/CB2 receptors was determined as described above.

[1] = target: recombinant human cannabinoid 1 receptor (CB1) (Homo sapiens, UniProt P21554); experiment: [35S]GTPγS binding antagonistic assay against WIN 55,212-2, CHO cell membranes; format: biochemical; conditions: compound at 1 μM against WIN 55,212-2; 100% = effect of internal standard CB1-antagonist
Chain of recombinant human cannabinoid 1 receptor (CB1) (P21554 whole entry): as above
Protocol: The percentage of catalepsy is determined according of the following formula: % Catalepsy=arithmetic mean/6×100 Antagonistic Assay: Materials and Methods. Membrane Preparation:
Chinese hamster ovary (CHO) cells stably expressing recombinant human cannabinoid 1 receptor (CB1) were cultured in nutrient mixture Ham's F 12 supplemented with 10% heat-inactivated fetal bovine serum, 2 mM L-glutamine, 50 U/ml penicillin, 50 U/ml streptomycin and 0.5 mg/ml geneticin. In order to obtain cells, culture flasks were washed twice with phosphate buffered saline and scraped. Then, cells were collected by centrifugation (200×g, 10 min) and stored dry at −80° C. Cells were homogenized in ice-cold 20 mM HEPES, 10 mM EDTA (pH 7.5) and centrifuged at 40,000×g for 15 min at 4° C. The pellet was resuspended in 20 mM HEPES, 0.1 mM EDTA (pH 7.5) and centrifuged for 15 min at 4° C. The final pellet was resuspended in 20 mM HEPES, 0.1 mM EDTA (pH 7.5), and divided in aliquots and stored at −80° C. until use.
[^35S]GTPγS Binding Assay:
The reaction was performed in 96-well plates. […] The incubation was terminated by rapid filtration through Millipore Multiscreen glass fiber FB, and rinsed two-times with ice-cold assay buffer. Filter plates were dried and 30 μl of scintillation liquid was added. Radioactivity was determined using Wallac Microbeta Trilux. Each experiment was performed at least in duplicate.
The average of basal [^35S]GTPγS binding was subtracted from all binding data.

[2] = In vivo testing for antiobesic activity, acute treatment; conditions: rats, acute oral administration
Protocol: III. In Vivo Testing for Antiobesic Activity a) Accute-Treatment
Normally handled rats were habituated to a reversed cycle 12/12 h, and the compound as well as saline was acutely orally administered. After administration the cumulated food intake (g) was measured at 6 h and 23 h. Following that the difference in body weight between control and compound treated animals was measured.

[3] = transfected human receptors, [3H]-CP55940, read-out: IC50

IC50 (CB1-Receptor; [3]) [nM]	Antagonism (%) [1] [%]	SMILES	activity reducing body weight [2]	IC50 (CB1-Receptor) [nM]
30	58.1	C[C@H]1C(C(=O)NC2CCCCCC2)=NN(c2ccc(Cl)cc2Cl)[C@H]1c1ccc(Br)cc1 (relative stereo) [Example 5, cis-5-(4-bromophenyl)-N-cycloheptyl-1-(2,4-dichlorophenyl)-4-methyl-4,5-dihydro-1H-pyrazole-3-carboxamide]		
69	93 ± 8	C[C@@H]1C(C(=O)N[C@H]2CCCC[C@@H]2O)=NN(c2ccc(Cl)cc2Cl)[C@@H]1c1ccc(Cl)cc1 [Example 18, (4S,5S)-5-(4-chlorophenyl)-1-(2,4-dichlorophenyl)-N-((1S,2S)-2-hydroxycyclohexyl)-4-methyl-4,5-dihydro-1H-pyrazole-3-carboxamide]	good activity	
	13	C[C@H]1C(C(=O)N[C@H]2CCCC[C@@H]2O)=NN(c2ccc(Cl)cc2Cl)[C@H]1c1ccc(Cl)cc1 [Example 17, (4R,5R)-5-(4-chlorophenyl)-1-(2,4-dichlorophenyl)-N-((1S,2S)-2-hydroxycyclohexyl)-4-methyl-4,5-dihydro-1H-pyrazole-3-carboxamide]		
	85	COc1ccc([C@@H]2[C@H](C)C(C(=O)N[C@H]3CCCC[C@@H]3O)=NN2c2ccc(Cl)cc2Cl)cc1 [Example 30, (4S,5S)-5-(4-methoxyphenyl)-1-(2,4-dichlorophenyl)-N-((1S,2S)-2-hydroxycyclohexyl)-4-methyl-4,5-dihydro-1H-pyrazole-3-carboxamide]		
	37	COc1ccc([C@H]2[C@@H](C)C(C(=O)N[C@H]3CCCC[C@@H]3O)=NN2c2ccc(Cl)cc2Cl)cc1 [Example 29, (4R,5R)-5-(4-methoxyphenyl)-1-(2,4-dichlorophenyl)-N-((1S,2S)-2-hydroxycyclohexyl)-4-methyl-4,5-dihydro-1H-pyrazole-3-carboxamide]		
31.9	79 ± 18	C[C@H]1C(C(=O)NC2CCCCCC2)=NN(c2ccc(Cl)cc2Cl)[C@H]1c1ccc(Cl)cc1 (relative stereo) [Example 1, cis-5-(4-chlorophenyl)-N-cycloheptyl-1-(2,4-dichlorophenyl)-4-methyl-4,5-dihydro-1H-pyrazole-3-carboxamide]		
112	83 ± 0	C[C@H]1C(C(=O)NC2CCCCCC2)=NN(c2ccc(Cl)cc2Cl)[C@H]1c1ccc(F)cc1 (relative stereo) [Example 7, cis-N-cycloheptyl-1-(2,4-dichlorophenyl)-5-(4-fluorophenyl)-4-methyl-4,5-dihydro-1H-pyrazole-3-carboxamide]		
		C[C@H]1C(C(=O)N[C@@H]2CCCC[C@H]2O)=NN(c2ccc(Cl)cc2Cl)[C@H]1c1ccc(Cl)cc1 [Example 15, (4R,5R)-5-(4-chlorophenyl)-1-(2,4-dichlorophenyl)-N-((1R,2R)-2-hydroxycyclohexyl)-4-methyl-4,5-dihydro-1H-pyrazole-3-carboxamide]	good activity	

SMILES	IC50 (CB1-Receptor; [3]) [nM]	Antagonism (%) [1] [%]	activity reducing body weight [2]	IC50 (CB1-Receptor) [nM]
COc1ccc([C@H]2[C@@H](C)C(C(=O)NC3CCCCCC3)=NN2c2ccc(Cl)cc2Cl)cc1 (relative stereo) [Example 11, cis-N-cycloheptyl-1-(2,4-dichlorophenyl)-5-(4-methoxyphenyl)-4-methyl-4,5-dihydro-1H-pyrazole-3-carboxamide]		78 ± 8		66
